Measurements reported in patent US20250353831A1, “NOVEL HETEROBICYCLIC COMPOUND FOR INHIBITING YAP-TEAD INTERACTION AND PHARMACEUTICAL COMPOSITION COMPRISING SAME” (priority 2022, published 2025).

Assays:
TEAD = TEAD reporter activity inhibition test (luciferase reporter in MCF7 cell line); type: cell-based; settings: Homo sapiens; MCF7 TEAD (GTIIC) firefly luciferase reporter cell line, 24 hours, ONE-Glo luminescence; read-out: IC50 on TEAD transcription activity
Method: The ability of the synthetic compounds to inhibit transcription of a target gene by TEAD was measured. This evaluation method was a method of measuring transcriptional activity of TEAD by measuring luminescence intensity of luciferase expressed in the case where TEAD binds to a target gene and activates transcription thereof, by using MCF7 cell line (BPS Bioscienc, Inc., USA) constructed by introducing firefly luciferase reporter gene into GTIIC (5′-ACATTCCA-3′), which is a specific binding structure of TEAD. The cell line was cultured in a MEM medium supplemented with 10% FBS, 1% Penicillin/Streptomycin, 1% non-essential amino acids, 10 μg/ml insulin, and 400 μg/ml Geneticin. In the test of inhibiting the TEAD reporter activity, Geneticin was excluded. The cells were aliquoted into a white 96-well plate at a density of 4×10^4 cells/100 μl and cultured for 6 hours. 50 μl of the test compound diluted to 3× concentration was mixed with each well. After culturing the cell line for 24 hours, signals of luciferase were measured by luminescence according to manufacturer's protocols by using ONE-Glo luciferase assay system (Promega, E6120). A 50% inhibitory concentration (IC50) on TEAD transcription activity was calculated by using GraphPad Prism 9.
An IC50 value less than 100 nM was expressed as A, an IC50 value not less than 100 nM but less than 500 nM was expressed as B, and an IC50 value not less than 500 nM was expressed as C.

NCI-H226 cells = experiment: Cell growth inhibition test (SRB) in NCI-H226 cells; type: cell-based; settings: Homo sapiens, 144 h, NCI-H226 NF2 gene-deficient mesothelioma cancer cell line, 6 days
Method: The ability of the synthetic compounds to inhibit the growth of NCI-H226 cells was identified. NCI-H226, which is an NF2 gene-deficient mesothelioma cancer cell line, was cultured in a RPMI 1640 medium supplemented with 10% FBS and 1% Penicillin/Streptomycin. The cultured cells were aliquoted into a 96-well plate at a density of 0.7×10^3 cells/100 μl and cultured for 24 hours, and then 100 μl of a test compound diluted to 2× concentration was mixed with each well and cultured for 6 days. SRB test method was used to measure cell growth inhibition, and a 50% inhibitory concentration (GI50) on cell growth by the compound was calculated by using GraphPad Prism 9.
A GI50value less than 100 nM was expressed as A and a GI50 value not less than 100 nM was expressed as B.

| IC50 (TEAD) | GI50 (NCI-H226 cells) | SMILES |
| --- | --- | --- |
| < 100 nM | < 100 nM | C=CC(=O)Nc1ccc2c(c1)c(-c1cn(C)cn1)cn2-c1ccc(C(F)(F)F)cc1 [Synthetic compound 9, N-(3-(1-methyl-1H-imidazol-4-yl)-1-(4-(trifluoromethyl)phenyl)-1pyrrolo[2,3-b]pyridin-5-yl)acrylamide] |
| < 100 nM | < 100 nM | C=CC(=O)Nc1ccc2c(c1)c(-c1ccccc1F)cn2-c1ccc(C(F)(F)F)cc1 [Synthetic compound 5, N-(3-(2-fluorophenyl)-1-(4-(trifluoromethyl)phenyl)-1H-indol-5-yl)acrylamide] |
| < 100 nM | < 100 nM | C=CC(=O)Nc1cnc2c(c1)c(-c1cn(C3CC3)cn1)cn2-c1ccc(C(F)(F)F)cc1 [Synthetic compound 8, N-(3-(1-cyclopropyl-1H-imidazol-4-yl)-1-(4-(trifluoromethyl)phenyl)-1H-pyrrolo[2,3-b]pyridin-5-yl)acrylamide] |
| < 100 nM | < 100 nM | C=CC(=O)Nc1ccc2c(c1)c(-c1cn(C3CCC3)cn1)cn2-c1ccc(C(F)(F)F)cc1 [Synthetic compound 4, N-(3-(1-cyclobutyl-1H-imidazol-4-yl)-1-(4-(trifluoromethyl)phenyl)-1H-indol-5-yl)acrylamide] |
| 100 to 500 nM | – | C=CC(=O)Nc1cc2c(-c3cn(C)cn3)cn(-c3ccc(C(F)(F)F)cc3)c2cc1Cl [Synthetic compound 10, N-(6-chloro-3-(1-methyl-1H-imidazol-4-yl)-1-(4-(trifluoromethyl)phenyl)-1H-indol-5-yl)acrylamide] |
| < 100 nM | < 100 nM | C=CC(=O)Nc1ccc2c(c1)c(-c1ccco1)cn2-c1ccc(C(F)(F)F)cc1 [Synthetic compound 3, N-(3-(furan-2-yl)-1-(4-(trifluoromethyl)phenyl)-1H-indol-5-yl)acrylamide] |
| 100 to 500 nM | – | C=C(F)C(=O)Nc1ccc2c(c1)c(-c1cn(C)cn1)cn2-c1ccc(C(F)(F)F)cc1 [Synthetic compound 6, 2-fluoro-N-(3-(1-methyl-1H-imidazol-4-yl)-1-(4-(trifluoromethyl)phenyl)-1H-indol-5-yl) acrylamide] |
| < 100 nM | < 100 nM | C=CC(=O)Nc1ccc2c(c1)c(-c1cn(C3CC3)cn1)cn2-c1ccc(C(F)(F)F)cc1 [Synthetic compound 2, N-(3-(1-cyclopropyl-1H-imidazol-4-yl)-1-(4-(trifluoromethyl)phenyl)-1H-indol-5-yl) acrylamide] |
| < 100 nM | < 100 nM | C=CC(=O)Nc1ccc2c(c1)c(-c1cn(CCOC)cn1)cn2-c1ccc(C(F)(F)F)cc1 [Synthetic compound 7, N-(3-(1-(2-methoxyethyl)-1H-imidazol-4-yl)-1-(4-(trifluoromethyl)phenyl)-1H-indol-5-yl)acrylamide] |
